Experimental data from patent publication US7259140B2, “Heparin-binding peptides and uses thereof” (Thomas Jefferson University, priority 2003, dated 2007).
Ends that are not written are not given here.

Legend:
[1] = test system: Lovenox ® Activity in Blood from Patients Treated with Lovenox ®; experiment: Neutralizing Lovenox activity in blood from patients treated with Lovenox (anti-Factor Xa assay); assay type: biochemical, human; settings: Peptide 12 μg/ml
Description: Blood was obtained from volunteers who were being treated with Lovenox® for their medical conditions after obtaining signatures on informed consent forms as approved by the Institutional Review Board. The assays to test neutralization of Lovendx® were performed as described for Table 2. A dose response from 1-60 μg/ml was evaluated as in Table 2.
The dose response pattern for the effective peptides was similar to the dose response in control plasma to which Lovenox® had been added. Each data point represents the mean and standard deviation of triplicate analyses on the same sample of blood from each patient.

[2] = test system: anti-Factor Xa Activity of the Low Molecular Weight Heparin Lovenox ®; experiment: Anti-Factor Xa assay (Stachrom Heparin kit): neutralization of Lovenox in citrate or plasma in vitro; assay type: biochemical, human; settings: for Lovenox ® Neutralized: Lovenox 0.7 U/ml; for anti-LMWH effect in citrate compared with plasma: Table 2A
Description: The ability of peptides such as (ARKKAAKA)3VLVLVLVL (SEQ ID NO:5) to neutralize the anti-Factor Xa activity of UFH and LMWH in vitro was tested using the Stachrom Heparin kit (Diagnostica Stago), a standard hematology laboratory assay used to measure the anti-Factor Xa activity of heparin. The assay was performed using the low molecular weight heparin enoxaparin sodium (Lovenox®, Aventis Pharmaceuticals, Inc.), unfractionated heparin (UFH), or the non-heparin glycosaminoglycan danaparoid sodium (Orgaran®, Organon Inc., West Orange, N.J.) in 0.32% citrate or in plasma anticoagulated with 0.32% citrate. Enoxaparin is commonly used clinically as a low molecular weight heparin (LMWH). Danaparoid is commonly used clinically as a non-heparin glycosaminoglycan anticoagulant. Currently, the only FDA approved drug to target UFH is protamine, which is not effective in vivo against LMWH or a non-heparin glycosaminoglycan such as danaparoid. Buffer and ATIII are added to form the heparin/ATIII complex, peptide is added, then Factor Xa, reporter dye substrate for Factor Xa activity, and stop solution, and the dye concentration is read at 405 nm. The absorbance of the dye increases with increasing Factor Xa activity, and thus is inversely proportional to the heparin (anti-Factor Xa activity) concentration. Peptides were tested in plasma obtained from three volunteers (A, B, and C). Platelet function inhibitors PG12 and theophylline were added to the blood immediately upon collection.
Results. […] (ARKKAAKA)3VLVLVLVL (SEQ ID NO:5) and VLVL(ARKKAAKA)3ARKKCAKA (SEQ ID NO:38) were able to neutralize about 0.4 U/ml anti-Factor Xa activity of LMWH at a concentration of 12 μg/ml, which would be an effective dose for patients. (AKKARA)6 (SEQ ID […]), (ARKKAAKA)4 (SEQ ID NO:31) and (ARKKAAKA)3ARKKCAKA […] 0.3-0.35 U/ml. In contrast, 12 μg protamine only neutralized about 0.25 U/ml of LMWH under these conditions.

[3] = Affinity coelectrophoresis (ACE) of peptide binding to radiolabeled low Mr heparin; set-up: species or system pig; settings: for Kd: pH 7.0, mean and standard deviation of four assays, read-out: Kd (nM), affinity for low molecular weight heparin
Excerpt: Preparation of Radiolabeled Heparin. Whole heparin from pig intestinal mucosa (Sigma) was tyramine end-labeled and radiolabeled with Na^125I (Amersham, Pharmacia Biotech, Inc., Piscataway, N.J.) to an average specific activity≅1.0×10^7 CPM/μg as described (San Antonio, J. D., et al., Biochemistry, 32:4746-4755, 1993). Radiolabeled heparin was fractionated on Sephadex G-100 (Bio-Rad Laboratories, Hercules, Calif.) and the final≅12% of material to elute was retained as the low Mr material of ≦6,000 (Jordan, R., D. Beeler, and R. Rosenberg, J. Biol. Chem., 254:2902-2913, 1979; Laurent, T. C., et al., Biochem. J., 175:691-701, 1978).
Analysis of Peptide-Heparin Interactions by Affinity Coelectrophoresis (ACE). ACE was used to study interactions between peptides and low molecular weight (low Mr) heparin (WO00/45831). In ACE, trace concentrations of radiolabeled heparin are electrophoresed through agarose lanes containing peptides at various concentrations. These analyses are used to determine the dissociation constants (Kd's). The electrophoretic patterns of radiolabeled heparin are then visualized using a phosphorimager, and the dissociation constant (Kd) corresponds to the protein concentration at which the heparin is half shifted from being fully mobile at very low protein concentrations to maximally retarded at saturating protein concentrations. The lower the Kd value, the higher the affinity.
Binding of radiolabeled heparin to peptides was studied by ACE as detailed elsewhere (San Antonio, J. D., et al., Biochemistry, 32:4746-4755, 1993). […] Briefly, peptides were dissolved in 1×ACE running buffer, 50 mM sodium 3-(N-morpholino)-2-hydroxypropanesulfonate (MOPSO, Sigma)/125 mM sodium acetate, pH 7.0, and serially diluted in running buffer at 2× concentrations. Peptides were then mixed 1:1 with 2% agarose/1% CHAPS, 3-[(3-cholamidopropyl)dimethylammonio]-1-propanesulfonate, (Boehringer Mannheim, Indianapolis, Ind.), and loaded into wells of a 1% agarose gel. Radiolabeled heparin was then loaded in a slot on the anode side of the gel, and electrophoresed through the peptide-containing wells, towards the cathode. Gels were dried and PG mobility was measured with a Phosphorimager (Molecular Dynamics, Sunnyvale, Calif.) by scanning each protein lane and determining the relative radioactivity content per 88-μm pixel through the length of the lane. Retardation coefficient (R) measurements, binding isotherm curve fittings, and apparent Kd value determinations were calculated as detailed previously (Lee, M. K., and A. D. Lander, Proc. Natl. Acad. Sci. USA, 88:2768-2772, 1991; San Antonio, J. D., et al, Biochemistry, 32:4746-4755, 1993).
Retardation coefficients (R) for the migration of low Mr 1^25I-tyramine-heparin through peptides were determined from ACE gel electrophoretograms, and are plotted against peptide concentration. Smooth curves represent non-linear least-squares fits to the equation R=R∞/{1+(Kd/[peptide])^n}.

[4] = blood of Lovenox-treated Patient Number 1
[5] = blood of Lovenox-treated Patient Number 2
[6] = blood of Lovenox-treated Patient Number 3
[7] = blood of Lovenox-treated Patient Number 4
[8] = blood of Lovenox-treated Patient Number 5
[9] = blood of Lovenox-treated Patient Number 8
[10] = blood of Lovenox-treated Patient Number 9
[11] = blood of Lovenox-treated Patient Number 10
[12] = blood of Lovenox-treated Patient Number 11

Sequence	Lovenox ® Neutralized [1, 4]	Lovenox ® Neutralized [1, 5]	Lovenox ® Neutralized [1, 6]	Lovenox ® Neutralized [1, 7]	Lovenox ® Neutralized [1, 8]	Lovenox ® Neutralized [1, 9]	Lovenox ® Neutralized [1, 10]	Lovenox ® Neutralized [1, 11]	Lovenox ® Neutralized [1, 12]	Lovenox ® Neutralized ([2]; 1 μg/ml Peptide, A Plasma)	Lovenox ® Neutralized ([2]; 1 μg/ml Peptide, B Plasma)	Lovenox ® Neutralized ([2]; 1 μg/ml Peptide, C Plasma)	Lovenox ® Neutralized ([2]; 1 μg/ml Peptide, Citrate)	Lovenox ® Neutralized ([2]; 6 μg/ml Peptide, A Plasma)	Lovenox ® Neutralized ([2]; 6 μg/ml Peptide, B Plasma)	Lovenox ® Neutralized ([2]; 6 μg/ml Peptide, C Plasma)	Lovenox ® Neutralized ([2]; 6 μg/ml Peptide, Citrate)	Lovenox ® Neutralized ([2]; 12 μg/ml Peptide, A Plasma)	Lovenox ® Neutralized ([2]; 12 μg/ml Peptide, B Plasma)	Lovenox ® Neutralized ([2]; 12 μg/ml Peptide, C Plasma)	further results
ARKKAAKAAAAAAAAAAAAAAAAAARKKAAKA [ARKKAAKA(A16)ARKKAAKA, reference compound]	0 U/ml	0.011 U/ml	0.055 U/ml	0.035 U/ml	0.005 U/ml	0 U/ml	0.009 U/ml	0.062 U/ml	0.007 + U/ml	0.010 ± 0.008 U/ml	0.027 ± 0.014 U/ml	0.0 U/ml	0.020 ± 0.023 U/ml	0.018 ± 0.018 U/ml	0.042 ± 0.041 U/ml	0.0 U/ml	0.013 ± 0.007 U/ml	0.025 ± 0.011 U/ml	0.042 ± 0.023 U/ml	0.008 ± 0.012 U/ml	Lovenox ® Neutralized ([2]; 12 μg/ml Peptide, Citrate): 0.010 ± 0.007 U/ml; Lovenox ® Neutralized ([2]; 60 μg/ml Peptide, A Plasma): 0.018 ± 0.020 U/ml; Lovenox ® Neutralized ([2]; 60 μg/ml Peptide, B Plasma): 0.061 ± 0.067 U/ml; Lovenox ® Neutralized ([2]; 60 μg/ml Peptide, C Plasma): 0.015 ± 0.012 U/ml; Lovenox ® Neutralized ([2]; 60 μg/ml Peptide, Citrate): 0.017 ± 0.014 U/ml; Lovenox ® Neutralized ([2]; 120 μg/ml Peptide, A Plasma): 0.043 ± 0.020 U/ml; Lovenox ® Neutralized ([2]; 120 μg/ml Peptide, B Plasma): 0.092 ± 0.042 U/ml; Lovenox ® Neutralized ([2]; 120 μg/ml Peptide, C Plasma): 0.003 ± 0.002 U/ml; Lovenox ® Neutralized ([2]; 120 μg/ml Peptide, Citrate): 0.069 ± 0.035 U/ml; effect in the anti-Factor Xa assay for Lovenox ([2]; in both citrate and plasma): minimal effects; Kd [3]: 8327 ± 60 nM
ARKKAAKAARKKAAKAARKKAAKAARKKAAKA [(ARKKAAKA)4]	0.116 U/ml	0.073 U/ml	0.105 U/ml	0.225 U/ml	0.194 U/ml	0.289 U/ml	0.283 U/ml	0.194 U/ml	0.135 U/ml	0.020 ± 0.016 U/ml	0.031 ± 0.015 U/ml	0.059 ± 0.029 U/ml	0.141 ± 0.051 U/ml	0.184 ± 0.038 U/ml	0.178 ± 0.022 U/ml	0.252 ± 0.024 U/ml	0.376 ± 0.019 U/ml	0.287 ± 0.058 U/ml	0.328 ± 0.041 U/ml	0.325 ± 0.030 U/ml	Lovenox ® Neutralized ([2]; 12 μg/ml Peptide, Citrate): 0.473 ± 0.039 U/ml; Lovenox ® Neutralized ([2]; 60 μg/ml Peptide, A Plasma): 0.343 ± 0.090 U/ml; Lovenox ® Neutralized ([2]; 60 μg/ml Peptide, B Plasma): 0.488 ± 0.012 U/ml; Lovenox ® Neutralized ([2]; 60 μg/ml Peptide, C Plasma): 0.495 ± 0.032 U/ml; Lovenox ® Neutralized ([2]; 60 μg/ml Peptide, Citrate): 0.515 ± 0.016 U/ml; Lovenox ® Neutralized ([2]; 120 μg/ml Peptide, A Plasma): 0.601 ± 0.052 U/ml; Lovenox ® Neutralized ([2]; 120 μg/ml Peptide, B Plasma): 0.541 ± 0.065 U/ml; Lovenox ® Neutralized ([2]; 120 μg/ml Peptide, C Plasma): 0.570 ± 0.029 U/ml; Lovenox ® Neutralized ([2]; 120 μg/ml Peptide, Citrate): 0.509 ± 0.079 U/ml; anti-LMWH effect in citrate compared with plasma [2]: greater anti-LMWH effect in citrate than in plasma; Lovenox/LMWH neutralization compared with protamine ([2]; low concentrations, in the presence of plasma): more effective than protamine; affinity for low molecular weight heparin [3]: high heparin affinity; Kd [3]: 55 ± 32 nM
ARKKAAKAARKKAAKAARKKAAKAVLVLVL [(ARKKAAKA)3VLVLVL]	0.016 U/ml	0.030 U/ml	0.043 U/ml	0.122 U/ml	0.109 U/ml	0.104 U/ml	0.187 U/ml	0.133 U/ml	0.142 U/ml	0.070 ± .036 U/ml	0.030 ± 0.020 U/ml	0.005 + 0.007 U/ml	0.064 ± .046 U/ml	0.250 ± .012 U/ml	0.234 ± 0.032 U/ml	0.153 ± 0.031 U/ml	0.298 ± .049 U/ml	0.241 ± .076 U/ml	0.247 ± 0.031 U/ml	0.276 ± 0.033 U/ml	Lovenox ® Neutralized ([2]; 12 μg/ml Peptide, Citrate): 0.457 ± .016 U/ml; Lovenox ® Neutralized ([2]; 60 μg/ml Peptide, A Plasma): 0.453 ± .029 U/ml; Lovenox ® Neutralized ([2]; 60 μg/ml Peptide, B Plasma): 0.474 ± 0.011 U/ml; Lovenox ® Neutralized ([2]; 60 μg/ml Peptide, C Plasma): 0.491 ± 0.029 U/ml; Lovenox ® Neutralized ([2]; 60 μg/ml Peptide, Citrate): 0.479 ± .006 U/ml; Lovenox ® Neutralized ([2]; 120 μg/ml Peptide, A Plasma): 0.457 ± .010 U/ml; Lovenox ® Neutralized ([2]; 120 μg/ml Peptide, B Plasma): 0.496 ± 0.028 U/ml; Lovenox ® Neutralized ([2]; 120 μg/ml Peptide, C Plasma): 0.471 ± 0.013 U/ml; Lovenox ® Neutralized ([2]; 120 μg/ml Peptide, Citrate): 0.516 ± .065 U/ml; anti-LMWH effect in citrate compared with plasma [2]: greater anti-LMWH effect in citrate than in plasma; Kd [3]: 44 ± 17 nM
